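1) Cells in 96-well plates. 2) Compound, 48 h, 5 concentrations. 3) Linear interpolation between surrounding doses. 4) Unreached endpoint = highest concentration. GI50 is the concentration that inhibits growth by half. Definition used: TGI = concentration required for complete inhibition of growth.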
Columns and labels:
Assay in all cases: NCI anticancer screen, dose series, 48 h
DU-145 prostate = system: DU-145 prostate
UO-31 renal = system: UO-31 renal
SNB-75 CNS = system: SNB-75 CNS
MCF7 breast = system: MCF7 breast
CCRF-CEM leukemia = system: CCRF-CEM leukemia
T-47D breast = system: T-47D breast
SF-539 CNS = system: SF-539 CNS
OVCAR-3 ovarian = system: OVCAR-3 ovarian
NCI-H226 lung = system: NCI-H226 lung
786-0 renal = system: 786-0 renal
KM12 colon = system: KM12 colon
PC-3 prostate = system: PC-3 prostate
NCI-H23 lung = system: NCI-H23 lung
MDA-MB-435 = system: MDA-MB-435
HT29 colon = system: HT29 colon
IGROV1 ovarian = system: IGROV1 ovarian
HL-60(TB) leukemia = system: HL-60(TB) leukemia
SN12C renal = system: SN12C renal
HCT-15 colon = system: HCT-15 colon
NCI/ADR-RES ovarian = system: NCI/ADR-RES ovarian
NCI-H522 lung = system: NCI-H522 lung
UACC-62 melanoma = system: UACC-62 melanoma
A549 NSCLC = system: A549 NSCLC
CAKI-1 renal = system: CAKI-1 renal
SR leukemia = system: SR leukemia
SK-MEL-28 melanoma = system: SK-MEL-28 melanoma
SNB-19 CNS = system: SNB-19 CNS

## CCCCOc1ccc(/C=N/Nc2cc(C)nc3ccc(Cl)cc23)cc1
DU-145 prostate
  TGI: 3710 nM
UO-31 renal
  GI50: 1560 nM
  TGI: 2930 nM
SNB-75 CNS
  GI50: 1750 nM
  TGI: 3330 nM
MCF7 breast
  GI50: 1650 nM
  TGI: 3370 nM
CCRF-CEM leukemia
  GI50: 1860 nM
  TGI: 4480 nM
T-47D breast
  GI50: 1730 nM
  TGI: 3770 nM
SF-539 CNS
  GI50: 1840 nM
  TGI: 3280 nM
OVCAR-3 ovarian
  GI50: 2030 nM
  TGI: 3780 nM
NCI-H226 lung
  GI50: 1630 nM
  TGI: 3410 nM
786-0 renal
  GI50: 2000 nM
  TGI: 3760 nM
KM12 colon
  GI50: 1930 nM
  TGI: 3870 nM
PC-3 prostate
  GI50: 1710 nM
  TGI: 3350 nM
NCI-H23 lung
  GI50: 1770 nM
  TGI: 3420 nM
MDA-MB-435
  GI50: 1730 nM
  TGI: 3170 nM
HT29 colon
  GI50: 1240 nM
  TGI: 2610 nM
IGROV1 ovarian
  GI50: 1930 nM
  TGI: 3630 nM
HL-60(TB) leukemia
  GI50: 1760 nM
  TGI: 3650 nM
SN12C renal
  GI50: 1630 nM
  TGI: 3080 nM
HCT-15 colon
  GI50: 1350 nM
  TGI: 2740 nM
NCI/ADR-RES ovarian
  GI50: 1730 nM
  TGI: 3360 nM
NCI-H522 lung
  GI50: 1720 nM
  TGI: 3290 nM
UACC-62 melanoma
  GI50: 1610 nM
  TGI: 3020 nM
A549 NSCLC
  GI50: 1860 nM
  TGI: 3440 nM
CAKI-1 renal
  GI50: 1680 nM
  TGI: 3070 nM
SR leukemia
  GI50: 501 nM
  TGI: 3130 nM
SK-MEL-28 melanoma
  GI50: 1660 nM
  TGI: 3080 nM
SNB-19 CNS
  GI50: 1810 nM
  TGI: 3300 nM

From PubChem BioAssay (NCI)
